Data: US9518015B2, “EP1 receptor ligands” (LABORATORIOS DEL DR. ESTEVE, S.A., priority 2011, dated 2016)

Legend:
human EP1 receptor [1] = molecular target: T1, human EP1 receptor (Homo sapiens, UniProt P34995); assay: Test 1: Human EP1 receptor radioligand binding assay ([3H]-PGE2, transfected HEK-293 cell membranes); design: expressed in transfected cells; host or cells: HEK-293 cell membranes; settings: read-out: Results of Test 1 (Binding assay), % inh
T1 sequence (P34995 1-402): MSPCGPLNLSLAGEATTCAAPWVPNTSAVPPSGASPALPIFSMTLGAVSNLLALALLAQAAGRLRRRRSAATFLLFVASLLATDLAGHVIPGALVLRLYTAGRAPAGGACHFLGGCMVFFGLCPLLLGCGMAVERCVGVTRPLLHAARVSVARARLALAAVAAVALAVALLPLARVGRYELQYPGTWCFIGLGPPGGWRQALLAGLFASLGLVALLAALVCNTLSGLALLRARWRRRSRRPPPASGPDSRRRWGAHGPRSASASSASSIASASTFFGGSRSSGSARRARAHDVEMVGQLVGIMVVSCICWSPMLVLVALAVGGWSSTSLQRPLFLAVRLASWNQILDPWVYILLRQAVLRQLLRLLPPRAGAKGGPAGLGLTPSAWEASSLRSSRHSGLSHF
Description: Test 1: Human EP1 Receptor Radioligand Binding Assay
To investigate binding properties of EP1 receptor ligands to human EP1 receptor, transfected HEK-293 cell membranes and [3H]-PGE2 (Perkin Elmer) were used. In 96-well plates the assay was carried out with a total reaction volume of 250 μl, containing 25 μl of membrane suspension (30 μg protein/well), 25 μl of [3H]-PGE2 (10 nM) in either absence or presence of 25 μl of either buffer or PGE2 (10 μM) for total and non-specific binding, respectively. Binding buffer contained 10 mM MES, 1 mM MgCl2 and 1 mM EDTA at pH 6.0. Plates were incubated at 25° C. for 60 minutes. After the incubation period, 200 μl of incubate were transferred to MultiScreen HTS, FB plates (Millipore), filtered and plates were washed 6 times with ice-cold 10 mM MES, 1 mM MgCl2 and 1 mM EDTA at pH 6.0. Filters were dried and counted in a MicroBeta scintillation counter (Perkin-Elmer) using EcoScint liquid scintillation cocktail.
Percentage inhibition was calculated relating compounds activity to the 0% inhibition of the wells incubated with 10 nM [3H]-PGE2 alone (total binding) and 100% inhibition of the wells incubated with 10 nM [3H]-PGE2 plus 10 μM PGE2 (non-specific binding).

human EP1 receptor [2] = molecular target: T1, human EP1 receptor; assay: Test 2: Measurement of IP1 responses by HTRF, suspended HEK-293 cells stably expressing human EP1 receptors, PGE2 30 nM; assay type: cell-based; design: expressed in transfected cells; settings: HEK293, at 10 μM, read-out: Results of Test 2 (Functional assay), % inh
How it was run: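 Suspended cells preincubated with compound for 15 min at 37 °C, then stimulated with 30 nM PGE2 for 90 min at 37 °C. IP1 quantified by competitive HTRF (665/620 nm) after lysis. Percent inhibition scaled between PGE2 alone (0%) and PGE2 plus 1 μM reference antagonist (100%).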

human EP1 receptor [3] = molecular target: T1, human EP1 receptor; assay: Test 3: Measurement of IP1 responses by HTRF, HEK-293 cells stably expressing human EP1 receptors incubated o/n, PGE2 10 nM; assay type: cell-based; design: expressed in transfected cells; settings: HEK293, read-out: Results of Test 3 (Functional assay), % inh
Description: Test 3: Measurement of IP1 Responses by Homogeneous Time Resolved Fluorescence
IP1 measurements on HEK-293 cells that stably expressed human EP1 receptors were performed by using a system based on Homogeneous Time Resolved Fluorescense (HTRF) (Gabriel et al., 2003). This technology allows the direct measurement of IP1 in living cells. The principle of this assay is based on competition between IP1 produced by cells and IP1-d2 conjugate for the binding with monoclonal anti-IP1-cryptate conjugate. The HTRF IP1 kit from CisBio was used according to the manufacturer's directions. The experimental procedure was performed as stated below.
40,000 cells per well were added to 96-well culture plates in 40 μl of Optimem and incubated o/n at 37° C. Optimem was replaced by 40 μl of stimulation buffer (supplied by the kit) and compounds were then added in 20 μl of stimulation buffer and incubated at 37° C. for 15 minutes followed by 10 μl of PGE2 to a final concentration of 10 nM. After 90 minutes at 37° C., the reaction was stopped lysing the cells with a mixture of 15 μl of cryptate and 15 μl of IP1-d2 prepared in the lysis buffer supplied by the manufacturer. Plates were incubated for an additional hour at room temperature and read at 665 nm/620 nm using an UltraEvolution Plate reader (Tecan).
Antagonist percentage inhibition was calculated relating compounds activity to the 0% inhibition of the wells incubated with 10 nM PGE2 alone and 100% inhibition of the wells incubated with 10 nM PGE2 plus 10 μM of the reference antagonist.

inhibition at 10 µM (human EP1 receptor [1]) | inhibition at 10 µM (human EP1 receptor [2]) | inhibition at 10 µM (human EP1 receptor [3]) | Structure (SMILES)
> 75% |  | > 75% | O=C(O)c1ccnc2c1c(CO)cn2Cc1cc(Cl)ccc1OCc1ccc(F)cc1F [Example 152]
> 75% |  | > 75% | CC(C)COc1ccc(Cl)cc1Cn1cc(CCO)c2c(C(=O)O)cccc21 [Example 157]
> 75% |  | > 75% | CC(C)(F)COc1ccc(Cl)cc1CN1CCc2c(C(=O)O)cccc21 [Example 166]
> 75% |  | > 75% | CC(C)COc1ccc(Cl)cc1CN1CCc2c(C(=O)O)cccc21 [Example 169]
> 75% |  | > 75% | CC(C)COc1ccc(F)cc1CN1CCc2c(C(=O)O)cccc21 [Example 170]
> 75% |  | > 75% | CC(C)COc1ccc(Cl)cc1CN1CCCc2c(C(=O)O)cccc21 [Example 175]
> 75% |  | > 75% | CC(C)(F)COc1ccc(Cl)cc1CN1CCCc2c(C(=O)O)cccc21 [Example 177]
> 75% |  | > 75% | O=C(O)c1cccc2c1CCCN2Cc1cc(Cl)ccc1OC1CCC1 [Example 178]
> 75% |  | > 75% | C=C(CF)COc1ccc(Cl)cc1CN1CCCc2c(C(=O)O)cccc21 [Example 182]
> 75% |  | > 75% | O=C(O)c1cccc2c1c(CO)nn2Cc1cc(Cl)ccc1OCc1ccc(Cl)cc1F [Example 188, sodium 1-(5-chloro-2-((4-chloro-2-fluorobenzyl)oxy)benzyl)-3-(hydroxymethyl)-1H-indazole-4-carboxylate]
> 75% |  | > 75% | Cc1ccc(OCc2ccc(Cl)cc2F)c(CN2CCOc3c(C(=O)O)cccc32)c1 [Example 194]
> 75% |  | > 75% | CC(C)COc1ccc(F)cc1CN1CCOc2c(C(=O)O)cccc21 [Example 195]
> 75% |  | > 75% | CC(C)COc1ccc(Cl)cc1CN1CCOc2c(C(=O)O)cccc21 [Example 196]
> 75% |  | > 75% | O=C(O)c1cccc2c1OCCN2Cc1cc(Cl)ccc1OC1CCC1 [Example 197]
> 75% |  | > 75% | COCc1cn(Cc2cc(Cl)ccc2OCc2ccc(Cl)cc2F)c2cccc(C(=O)O)c12 [Example 207, Sodium 1-(5-chloro-2-(4-chloro-2-fluorobenzyloxy)benzyl)-3-(methoxymethyl)-1H-indole-4-carboxylate]
> 75% |  | > 75% | O=C(O)c1cccc2c1CC(=O)N2Cc1cc(Cl)ccc1OCc1ccc(Cl)cc1F [Example 208, sodium 1-(5-chloro-2-(4-chloro-2-fluorobenzyloxy)benzyl)-2-oxoindoline-4-carboxylate]

The remaining lines, values behind:

Structure (SMILES) | inhibition at 10 µM (human EP1 receptor [1]) | inhibition at 10 µM (human EP1 receptor [2]) | inhibition at 10 µM (human EP1 receptor [3])
O=C(O)c1cccc2c1ccn2Cc1cc(Br)ccc1OCc1ccc(Br)cc1F [Example 55, 1-(5-bromo-2-((4-bromo-2-fluorobenzyl)oxy)benzyl)-1H-indole-4-carboxylic acid] | > 75% | > 75% | 
O=C(O)c1ccc2c(ccn2Cc2cc(F)ccc2OCc2ccc(F)c(Br)c2)c1 [Example 68, 1-(2-((3-bromo-4-fluorobenzyl)oxy)-5-fluorobenzyl)-1H-indole-5-carboxylic acid] | 45 to 75% | > 75% | 
O=C(O)c1ccc2c(ccn2Cc2cc(Br)ccc2OCc2ccc(F)cc2C(F)(F)F)c1 [Example 69] | 45 to 75% | > 75% | 
O=C(O)c1ccc2c(ccn2Cc2cc(C(F)(F)F)ccc2OCc2ccc(Br)cc2F)c1 [Example 75, 1-(2-((4-bromo-2-fluorobenzyl)oxy)-5-(trifluoromethyl)benzyl)-1H-indole-5-carboxylic acid] | 45 to 75% | > 75% | 
O=C(O)c1ncnc2c1ccn2Cc1cc(Cl)ccc1OCc1ccc(F)cc1F [Example 99] | > 75% | > 75% | 
O=C(O)c1cccc2c1OCC(=O)N2Cc1cc(Br)ccc1OCc1ccc(Cl)cc1F [Example 115] | > 75% |  | > 75%
O=C(O)c1cccc2c1OCCN2Cc1cc(Cl)ccc1OCc1ccc(Cl)cc1F [Example 117] | > 75% |  | > 75%
O=C(O)c1cccc2c1OCCN2Cc1ccccc1OCc1ccc(Cl)cc1F [Example 119] | > 75% |  | > 75%
O=C(O)c1cccc2c1OCCN2Cc1cc(F)ccc1OCc1ccc(F)cc1Cl [Example 121] | > 75% |  | > 75%
O=C(O)c1cccc2c1OCCN2Cc1ccccc1OCc1ccc(F)cc1F [Example 122] | > 75% |  | > 75%
O=C(O)c1cccc2c1cnn2Cc1cc(Cl)ccc1OCc1ccc(Cl)cc1F [Example 124] | > 75% |  | > 75%
CC(C)(F)COc1ccc(Cl)cc1Cn1ncc2c(C(=O)O)cccc21 [Example 125] | > 75% |  | > 75%
O=C(O)c1cccc2c1cnn2Cc1cc(Br)ccc1OCc1ccc(Cl)cc1F [Example 136] | > 75% |  | > 75%
O=C(O)c1cccc2c1cnn2Cc1cc(Cl)ccc1OC1CCC1 [Example 137] | > 75% |  | > 75%
CC(C)(C)COc1ccc(Cl)cc1Cn1ncc2c(C(=O)O)cccc21 [Example 138] | > 75% |  | > 75%
O=C(O)c1cccc2c1c(CO)cn2Cc1cc(Cl)ccc1OCc1ccc(Cl)cc1F [Example 141, sodium 1-(5-chloro-2-((4-chloro-2-fluorobenzyl)oxy)benzyl)-3-(hydroxymethyl)-1H-indole-4-carboxylate] | > 75% |  | > 75%
O=C(O)c1cccc2c1c(CO)cn2Cc1cc(Cl)ccc1OCc1ccc(F)cc1F [Example 142] | > 75% |  | > 75%
O=C(O)c1cccc2c1c(CO)cn2Cc1ccccc1OCc1ccc(Cl)cc1F [Example 144] | > 75% |  | > 75%
O=C(O)c1cccc2c1c(CO)cn2Cc1cc(F)ccc1OCc1ccc(F)cc1F [Example 145] | > 75% |  | > 75%
O=C(O)c1cccc2c1c(CO)cn2Cc1cc(F)ccc1OCc1ccc(Cl)cc1F [Example 146] | > 75% |  | > 75%
CC(C)(F)COc1ccc(Cl)cc1Cn1cc(CO)c2c(C(=O)O)cccc21 [Example 147] | > 75% |  | > 75%
O=C(O)c1cccc2c1c(CO)cn2Cc1cc(F)ccc1OC1CCC1 [Example 148] | > 75% |  | > 75%
O=C(O)c1cccc2c1c(CO)cn2Cc1cc(F)ccc1OCc1ccc(F)cc1 [Example 149] | > 75% |  | > 75%
CC(CF)COc1ccc(Cl)cc1Cn1cc(CO)c2c(C(=O)O)cccc21 (centres unmarked) [Example 151] | > 75% |  | > 75%
